{"source": "patent US6239131A", "about": "“1,5 Benzodiazepine derivatives” (Zeria Pharmaceutical Co., Ltd., priority 1996, dated 2001)", "key": {"[1]": {"molecular_target": "T1, CCK-B receptors (Cavia porcellus, UniProt H0VZC5)", "T1 construct": "Cerebral cortices were removed from Hartley-strain guinea pigs, the cerebral cortices were homogenized; from tissue; host or cells: cerebral cortex of Hartley-strain guinea pigs, crude membrane pellet", "T1 sequence (H0VZC5 1-426)": "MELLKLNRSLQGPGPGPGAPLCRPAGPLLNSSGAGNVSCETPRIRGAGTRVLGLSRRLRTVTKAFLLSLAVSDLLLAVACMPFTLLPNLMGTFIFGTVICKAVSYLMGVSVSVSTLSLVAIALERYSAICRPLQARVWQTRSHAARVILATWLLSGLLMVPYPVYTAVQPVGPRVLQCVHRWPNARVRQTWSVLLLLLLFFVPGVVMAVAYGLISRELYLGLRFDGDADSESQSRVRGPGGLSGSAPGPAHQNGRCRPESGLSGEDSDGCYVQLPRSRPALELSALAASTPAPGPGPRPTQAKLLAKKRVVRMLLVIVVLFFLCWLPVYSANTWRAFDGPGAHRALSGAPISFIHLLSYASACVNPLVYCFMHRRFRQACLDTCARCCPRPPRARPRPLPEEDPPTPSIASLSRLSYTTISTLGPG", "test": "Measurement of Binding Affinity for CCK-B Receptors", "set-up": "species or system Hartley-strain guinea pig", "conditions": "inhibition of specific [3H]CCK-8 (1.0 nM) binding; guinea pig cerebral cortex; 25° C., 2 hours; pH 6.5; read-out: Ki (CCK-B receptors)", "protocol": "Cerebral cortices were removed from Hartley-strain guinea pigs, the cerebral cortices were homogenized in 50 volumes of 50 mM Tris-HCl buffer (pH7.4) and centrifuged at 50000×g for 10 minutes. The Tris-HCl buffer was added to the pellet and recentrifuged as above two times. The final pellet was rehomogenized in 10 mM HEPES buffer (pH 6.5, which hereinafter be abbreviated as \"solvent\") containing 5 mM MgCl2, 1 mM EGTA, 0.25 mg/ml bacitracin and 130 mM NaCl, and used as the receptor preparation.\nBinding assay was measured as follows. Fifty μl of [^3 H]CCK-8 (at the final concentration of 1.0 nM) and 900 μl of the receptor preparation (800 μg protein/tube) were added to 50 μl of either solvent, CCK-8 (1 μM) or a test compound. These ware reacted at 25° C. for 2 hours. After the reaction, the mixture was filtrated through Whatman GF/B filter presoaked in 0.1% BSA. The filter was washed with 3 ml of ice-cold 50 mM Tris-HCl buffer (pH 7.4) four times, immediately after the filtration. The filter was soaked in the ACS-II scintillation cocktail for a day and radioactivity was measured using a liquid scintillation counter. Non-specific binding was defined as the radioactivity in the presence of 1 μM CCK-8. Specific binding was defined as the difference between total binding (used solvent without CCK-8) and non-specific binding. Inhibitor dissociation constant (Ki) of each test compound was determined from the inhibition of specific [^3 H]CCK-8 binding."}, "[2]": {"tested_on": "pentagastrin-stimulated acid secretion", "test": "Measurement of Inhibition of Pentagastrin-stimulated Acid Secretion", "assay_type": "in vivo, male Sprague-Dawley (SD)-strain rats", "conditions": "intraduodenal; for inhibition in vivo at 10 mg/kg: read-out: % Inhibition of acid output", "method": "Male Sprague-Dawley (SD)-strain rats were used. Each rat was operated to ligate the pylorus, and equip with a duodenal catheter and gastric fistula under a ether anesthesia. After the operation, each rat was placed in a Bollman-type cage and continuously infused pentagastrin (15 μg/kg/hr) through the tail vein. Test compounds were suspended in 0.5% aqueous sodium carboxymethylcellulose (which hereinafter be abbreviated as \"vehicle\"). Vehicle or test compound was administered through the intraduodenal catheter 1 hour after the beginning of pentagastrin infusion. Acidity of the collected gastric juice was measured by an automatic titillation device. Acid output was determined by multiplying the volume by the acidity of gastric juice. […] [formula]"}, "[3]": {"molecular_target": "T2, CCK-A receptors (Cavia porcellus, UniProt Q63931)", "T2 construct": "Pancreases were removed from Hartley-strain guinea pigs, the pancreases were homogenized; from tissue; host or cells: pancreas of Hartley-strain guinea pigs, crude membrane pellet", "T2 sequence (Q63931 1-430)": "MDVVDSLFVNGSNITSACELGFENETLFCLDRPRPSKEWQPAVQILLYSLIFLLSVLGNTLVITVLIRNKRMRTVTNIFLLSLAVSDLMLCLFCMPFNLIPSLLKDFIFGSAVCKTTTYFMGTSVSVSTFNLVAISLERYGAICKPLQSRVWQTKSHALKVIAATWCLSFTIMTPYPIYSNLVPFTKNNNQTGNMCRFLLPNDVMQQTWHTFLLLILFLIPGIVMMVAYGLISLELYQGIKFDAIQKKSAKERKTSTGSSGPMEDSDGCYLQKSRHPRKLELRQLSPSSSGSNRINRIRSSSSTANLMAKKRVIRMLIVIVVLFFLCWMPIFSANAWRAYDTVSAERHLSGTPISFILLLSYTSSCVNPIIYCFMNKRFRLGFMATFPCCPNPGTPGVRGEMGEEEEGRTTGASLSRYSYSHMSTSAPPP", "test": "Measurement of Binding Affinity for CCK-A Receptors", "set-up": "species or system Hartley-strain guinea pig", "conditions": "inhibition of specific [3H]L-364,718 (0.2 nM) binding; guinea pig pancreas; 25° C., 2 hours; pH 6.5", "method": "Pancreases were removed from Hartley-strain guinea pigs, the pancreases were homogenized in 40 volumes of 10 mM PIPES buffer (pH 6.5, which hereinafter be abbreviated as \"solvent\") containing 1 mM EGTA, 30 mM MgCl2, 0.02% bacitracin, 0.02% soybean trypsin inhibitor and 0.3 M sucrose. The homogenate was filtrated through gauze and centrifuged at 50000×g for 10 minutes. Solvent was added to the pellet and recentrifuged as above. The final pellet thus obtained was homogenized in 40 volumes of solvent and used as the receptor preparation.\nBinding assay was measured as follows. Fifty μl of [^3 H]L-364, 718 (at the final concentration of 0.2 nM) and 900 μl of the receptor preparation (50 μg protein/tube) were added to 50 μl of solvent, or L-364, 718 (1 μM) or a test compound. This mixture was incubated at 25° C. for 2 hours. After the reaction, the mixture was filtrated through Whatman GF/B filter presoaked in 0.1% BSA (bovine serum albumin). The filter was washed with 3 ml of ice-cold 10 mM PIPES buffer (pH 6.5) three times, immediately after the filtration. The filter was soaked in the ACS-II scintillation cocktail for one day and radioactivity was measured using a liquid scintillation counter. Non-specific binding was defined as the radioactivity in the presence of 1 μM L-364, 718. Specific binding was defined as the difference between total binding (used solvent without L-364, 718) and non-specific binding. lnhibitor dissociation constant (Ki) of each test compound was determined from the inhibition of specific [^3 H]L-364, 718 binding."}, "[4]": {"conditions": "rat, acid output from 1 to 4 hours after administration, pentagastrin 15 μg/kg/hr"}}, "note": "pKi: −log10 of the molar value. Like-named read-outs stand apart in the source and are kept apart here."}
{"smiles": "CC(C)(C)OC(=O)CN1C(=O)C(NC(=O)Nc2cccc(C(=O)O)c2)CN(c2ccccc2)c2ccccc21", "note": "(stereo not shown) [Example 80, 3-[3-[1-tert-butoxycarbonylmethyl-2-oxo-5-phenyl-1,3,4,5-tetrahydro-2H-1,5-benzodiazepin-3-yl]ureido]benzoic acid]", "values": [{"measurement": "pKi", "setting": "[1]", "result": 8.58}, {"measurement": "inhibition in vivo at 3 mg/kg", "setting": "[2]; [4]", "result": 45.4, "unit": "%"}]}
{"smiles": "Cc1cccc(NC(=O)NC2CN(C(=O)C3CCCC3)c3ccccc3N(CC(=O)c3ccccc3C)C2=O)c1", "note": "(stereo not shown) [Example 28, 1-[1-(2-toluoylmethyl)-2-oxo-5-cyclopentylcarbonyl-1,3,4,5-tetrahydro-2H-1,5-benzodiazepin-3-yl]-3-(3-methylphenyl)urea]", "values": [{"measurement": "pKi", "setting": "[3]", "result": 7.84}]}
{"smiles": "Cc1ccc2c(c1)N(CC(=O)c1ccccc1C)C(=O)C(NC(=O)Nc1cccc(C(=O)O)c1)CN2C(=O)C(C)(C)CCl", "note": "(stereo not shown) [Example 94, 3-[3-[1-(2-toluoylmethyl)-2-oxo-5-(3-chloro-2,2-dimethylpropionyl)-8-methyl-1,3,4,5-tetrahydro-2H-1,5-benzodiazepin-3-yl]ureido]benzoic acid]", "values": [{"measurement": "pKi", "setting": "[1]", "result": 8.79}, {"measurement": "inhibition in vivo at 30 mg/kg", "setting": "[2]; [4]", "result": 93.3, "unit": "%"}]}
{"smiles": "Cc1ccc2c(c1)N(CC(=O)C(C)(C)C)C(=O)C(NC(=O)Nc1cccc(C(=O)O)c1)CN2c1ccccc1", "note": "(stereo not shown) [Example 95, 3-[3-(1-tert-butylcarbonylmethyl-2-oxo-5-phenyl-8-methyl-1,3,4,5-tetrahydro-2H-1,5-benzodiazepin-3-yl]ureido]benzoic acid]", "values": [{"measurement": "pKi", "setting": "[1]", "result": 8.65}, {"measurement": "inhibition in vivo at 1 mg/kg", "setting": "[2]; [4]", "result": 49, "unit": "%"}]}
{"smiles": "CC(C)(C)C(=O)CN1C(=O)[C@H](NC(=O)Nc2cccc(C(=O)O)c2)CN(C2CCCCC2)c2ccccc21", "note": "[Example 143, (R)-(-)-3-[3-(1-tert-butylcarbonylmethyl-2-oxo-5-cyclohexyl-1,3,4,5-tetrahydro-2H-1,5-benzodiazepin-3-yl)ureido]benzoic acid]", "values": [{"measurement": "pKi", "setting": "[1]", "result": 9.20}, {"measurement": "inhibition in vivo at 0.1 mg/kg", "setting": "[2]; 0.1 mg/kg, rat, acid output from 1 to 4 hours after administration, pentagastrin 15 μg/kg/hr", "result": 54.6, "unit": "%"}]}
{"smiles": "CC(C)(C)C(=O)CN1C(=O)[C@H](NC(=O)Nc2cccc(SCC(=O)O)c2)CN(C2CCCCC2)c2ccccc21", "note": "[Example 169, (R)-(-)-3-[3-(1-tert-butylcarbonylmethyl-2-oxo-5-cyclohexyl-1,3,4,5-tetrahydro-2H-1,5-benzodiazepin-3-yl)ureido]phenylthioacetic acid]", "values": [{"measurement": "pKi", "setting": "[1]", "result": 10.00}, {"measurement": "inhibition in vivo at 1 mg/kg", "setting": "[2]; [4]", "result": 75.2, "unit": "%"}]}
{"smiles": "Cc1ccc2c(c1)N(CC(=O)c1ccco1)C(=O)C(NC(=O)Nc1cccc(C(=O)O)c1)CN2C(=O)C(C)(C)C", "note": "(stereo not shown) [Example 114, 3-[3-[1-(furan-2-yl)carbonylmethyl-2-oxo-5-pivaloyl-8-methyl-1,3,4,5-tetrahydro-2H-1,5-benzodiazepin-3-yl]ureido]benzoic acid]", "values": [{"measurement": "pKi", "setting": "[1]", "result": 8.03}, {"measurement": "inhibition in vivo at 30 mg/kg", "setting": "[2]; [4]", "result": 89.7, "unit": "%"}]}
{"smiles": "Cc1ccc2c(c1)N(CC(=O)c1ccccc1C)C(=O)C(NC(=O)Nc1cccc(C(=O)O)c1)CN2C(=O)C(C)(C)C", "note": "(racemic) [Example 13 (racemate), 3-[3-[1-(2-toluoylmethyl)-2-oxo-5-pivaloyl-8-methyl-1,3,4,5-tetrahydro-2H-1,5-benzodiazepin-3-yl]ureido]benzoic acid]", "values": [{"measurement": "pKi", "setting": "[1]", "result": 8.50}, {"measurement": "inhibition in vivo at 3 mg/kg", "setting": "[2]; [4]", "result": 80.9, "unit": "%"}]}
{"smiles": "CC(C)(C)C(=O)CN1C(=O)C(NC(=O)Nc2cccc(C(=O)O)c2)CN(C(=O)C(C)(C)C)c2ccccc21", "note": "(stereo not shown) [Example 10, 3-[3-(1-tert-butylcarbonylmethyl-2-oxo-5-pivaloyl-1,3,4,5-tetrahydro-2H-1,5-benzodiazepin-3-yl)ureido]benzoic acid]", "values": [{"measurement": "pKi", "setting": "[1]", "result": 8.16}, {"measurement": "inhibition in vivo at 10 mg/kg", "setting": "[2]; 10 mg/kg, rat, acid output from 1 to 4 hours after administration, pentagastrin 15 μg/kg/hr", "result": 67.1, "unit": "%"}]}
{"smiles": "Cc1ccccc1C(=O)CN1C(=O)C(NC(=O)Nc2cccc(C(=O)O)c2)CN(C(=O)C(C)(C)C)c2ccccc21", "note": "(single isomer, unassigned)", "values": [{"measurement": "pKi", "setting": "[1]", "result": 8.85}, {"measurement": "inhibition in vivo at 10 mg/kg", "setting": "[2]; Rattus norvegicus, 4 h", "result": 69.8, "unit": "%"}]}
{"smiles": "CC(C)(C)C(=O)CN1C(=O)[C@H](NC(=O)Nc2cccc(C(=O)NS(C)(=O)=O)c2)CN(C2CCCCC2)c2ccccc21", "note": "[Example 168, (R)-(-)-1-(1-tert-butylcarbonylmethyl-2-oxo-5-cyclohexyl-1,3,4,5-tetrahydro-2H-1,5-benzodiazepin-3-yl)-3-(3-methylsulfonylaminocarbonylphenyl)urea]", "values": [{"measurement": "pKi", "setting": "[1]", "result": 9.68}, {"measurement": "inhibition in vivo at 1 mg/kg", "setting": "[2]; [4]", "result": 58.9, "unit": "%"}]}
{"smiles": "Cc1ccc2c(c1)N(CC(=O)C(C)(C)C)C(=O)C(NC(=O)Nc1cccc(C(=O)O)c1)CN2c1ccccc1", "note": "(single isomer, unassigned; (-)) [Example 97, (-)-3-[3-(1-tert-butylcarbonylmethyl-2-oxo-5-phenyl-8-methyl-1,3,4,5-tetrahydro-2H-1,5-benzodiazepin-3-yl)ureido]benzoic acid]", "values": [{"measurement": "pKi", "setting": "[1]", "result": 8.80}, {"measurement": "pKi", "setting": "[3]", "result": 6.44}]}
{"smiles": "Cc1ccc2c(c1)N(CC(=O)c1ccccc1C)C(=O)C(NC(=O)Nc1cccc(C(=O)O)c1)CN2C(=O)C(C)(C)C", "note": "(single isomer, unassigned; (+)) [Example 13 (+form), (+)-3-[3-[1-(2-toluoylmethyl)-2-oxo-5-pivaloyl-8-methyl-1,3,4,5-tetrahydro-2H-1,5-benzodiazepin-3-yl]ureido]benzoic acid]", "values": [{"measurement": "pKi", "setting": "[1]", "result": 8.94}, {"measurement": "inhibition in vivo at 1 mg/kg", "setting": "[2]; [4]", "result": 81.5, "unit": "%"}]}
{"smiles": "CC(=O)N1CC(NC(=O)Nc2cccc(C(=O)O)c2)C(=O)N(CC(=O)c2ccccc2C)c2cc(C)ccc21", "note": "(stereo not shown) [Example 111, 3-[3-[1-(2-toluoylmethyl)-2-oxo-5-acetyl-8-methyl-1,3,4,5-tetrahydro-2H-1,5-benzodiazepin-3-yl]ureido]benzoic acid]", "values": [{"measurement": "pKi", "setting": "[3]", "result": 8.20}]}
{"smiles": "Cc1cccc(NC(=O)NC2CN(C(=O)C3CCCCC3)c3ccccc3N(CC(=O)c3ccccc3C)C2=O)c1", "note": "(stereo not shown) [Example 14, 1-[1-(2-toluoylmethyl)-2-oxo-5-cyclohexylcarbonyl-1,3,4,5-tetrahydro-2H-1,5-benzodiazepin-3-yl]-3-(3-methylphenyl)urea]", "values": [{"measurement": "pKi", "setting": "[3]", "result": 7.88}]}
{"smiles": "CC(C)(C)C(=O)CN1C(=O)C(NC(=O)Nc2cccc(C(=O)O)c2)CN(C2CCCCC2)c2ccccc21", "note": "(stereo not shown) [Example 121, 3-[3-(1-tert-butylcarbonylmethyl-2-oxo-5-cyclohexyl-1,3,4,5-tetrahydro-2H-1,5-benzodiazepin-3-yl)ureido]benzoic acid]", "values": [{"measurement": "pKi", "setting": "[1]", "result": 8.92}, {"measurement": "inhibition in vivo at 0.3 mg/kg", "setting": "[2]; 0.3 mg/kg, rat, acid output from 1 to 4 hours after administration, pentagastrin 15 μg/kg/hr", "result": 47, "unit": "%"}]}
{"smiles": "Cc1cccc(NC(=O)NC2CN(C(=O)C(C)(C)C)c3ccccc3N(CC(=O)c3ccccc3C)C2=O)c1", "note": "(stereo not shown) [Example 1, 1-[1-(2-toluoylmethyl)-2-oxo-5-pivaloyl-1,3,4,5-tetrahydro-2H-1,5-benzodiazepin-3-yl]-3-(3-methylphenyl)urea]", "values": [{"measurement": "pKi", "setting": "[1]", "result": 8.19}, {"measurement": "inhibition in vivo at 30 mg/kg", "setting": "[2]; [4]", "result": 59.4, "unit": "%"}]}
